Experimental data as given in PubChem BioAssay AID328 (DTP/NCI, 2004).
Several values for one entry are separate records, joined by “and”; a condition that tells them apart may be missing. Identical values can stand only once. Toxic doses and inconclusive results are not listed.

Tested on: BDF1 mice, P388 leukemia ip, median survival T/C
Experiment: NCI In Vivo Anticancer Drug Screen. Data for tumor model P388 Leukemia (intraperitoneal) in B6D2F1 (BDF1) mice
Conditions: endpoint: median survival time, higher = longer survival
In short: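 T/C = treated-group survival ÷ vehicle-control survival; tumour transplanted into mice before dosing.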

[1] = dose: 50.0 mg/kg/injection, schedule: Q01DX009 (ip), vehicle: saline with Tween-80
[2] = dose: 100.0 mg/kg/injection, schedule: Q01DX009 (ip), vehicle: saline with Tween-80
[3] = dose: 200.0 mg/kg/injection, schedule: Q01DX009 (ip), vehicle: saline with Tween-80
[4] = dose: 100.0 mg/kg/injection, schedule: Q04DX003 (ip), vehicle: saline with Tween-80
[5] = dose: 200.0 mg/kg/injection, schedule: Q04DX003 (ip), vehicle: saline with Tween-80
[6] = dose: 100.0 mg/kg/injection, schedule: Q04DX003 (ip), vehicle: Klucel (hydroxypropylcellulose) (HPC)
[7] = dose: 200.0 mg/kg/injection, schedule: Q04DX003 (ip), vehicle: Klucel (hydroxypropylcellulose) (HPC)
[8] = dose: 400.0 mg/kg/injection, schedule: Q04DX003 (ip), vehicle: Klucel (hydroxypropylcellulose) (HPC)
[9] = dose: 100.0 mg/kg/injection, schedule: Q01DX001 (ip), vehicle: Klucel (hydroxypropylcellulose) (HPC)
[10] = dose: 200.0 mg/kg/injection, schedule: Q01DX001 (ip), vehicle: Klucel (hydroxypropylcellulose) (HPC)
[11] = dose: 100.0 mg/kg/injection, schedule: Q04DX003 (ip), vehicle: saline sonified
[12] = dose: 200.0 mg/kg/injection, schedule: Q04DX003 (ip), vehicle: saline sonified

Cn1cnc([N+](=O)[O-])c1Sc1nc(N)nc2nc[nH]c12
T/C (dose: 7.0 mg/kg/injection, schedule: Q01DX009 (ip), vehicle: saline with Tween-80): 190 % of control
T/C (dose: 11.0 mg/kg/injection, schedule: Q01DX009 (ip), vehicle: saline with Tween-80): 190 % of control
T/C (dose: 16.5 mg/kg/injection, schedule: Q01DX009 (ip), vehicle: saline with Tween-80): 96 % of control

CCOC(=O)c1c(N)c2cnn(C)c2[nH]c1=O
T/C (dose: 100.0 mg/kg/injection, schedule: Q04DX002 (ip), vehicle: saline with Tween-80): 100 % of control
T/C (dose: 200.0 mg/kg/injection, schedule: Q04DX002 (ip), vehicle: saline with Tween-80): 90 % of control
T/C (dose: 400.0 mg/kg/injection, schedule: Q04DX002 (ip), vehicle: saline with Tween-80): 90 % of control

CCN(CC)c1oc2ccc3ccccc3c2c(=O)c1Cl
T/C [1]: 97 % of control
T/C [2]: 94 % of control
T/C [3]: 92 % of control

CC(C)=CC(=O)n1nc2c(c1CC(C)C)C(=O)C(Nc1ccccc1)=CC2=O
T/C [4]: 93 % of control
T/C [5]: 90 % of control
T/C (dose: 400.0 mg/kg/injection, schedule: Q04DX003 (ip), vehicle: saline with Tween-80): 100 % of control

CC1(C)C2CC3C(=CCCC3C#N)C1C2 (stereo unspecified)
T/C [6]: 100 % of control
T/C [7]: 100 % of control
T/C [8]: 100 % of control

Cc1nc(N)cc(=O)[nH]1
T/C (dose: 100.0 mg/kg/injection, schedule: Q01DX009 (ip), vehicle: water): 105 % of control
T/C (dose: 200.0 mg/kg/injection, schedule: Q01DX009 (ip), vehicle: water): 110 % of control
T/C (dose: 400.0 mg/kg/injection, schedule: Q01DX009 (ip), vehicle: water): 95 % of control

CCCCCCC1OCC2(CO1)COC(CCCCCC)OC2 (stereo unspecified)
T/C [4]: 90 % of control
T/C [5]: 86 % of control

O=[N+]([O-])c1ccc(Cl)c2c([N+](=O)[O-])cccc12
T/C (dose: 50.0 mg/kg/injection, schedule: Q04DX003 (ip), vehicle: saline with Tween-80): 104 % of control
T/C [4]: 109 % of control
T/C [5]: 109 % of control

CC1CC(O)C2C3(C)CCCC2(COC3=O)C12CCC1(CCOC1=O)O2 (stereo unspecified)
T/C (dose: 0.13 mg/kg/injection, schedule: Q01DX009 (ip), vehicle: saline): 112 % of control
T/C (dose: 0.25 mg/kg/injection, schedule: Q01DX009 (ip), vehicle: saline): 104 % of control
T/C (dose: 0.5 mg/kg/injection, schedule: Q01DX009 (ip), vehicle: saline): 93 % of control
T/C (dose: 1.0 mg/kg/injection, schedule: Q01DX009 (ip), vehicle: saline): 104 % of control

CCOCN(COCC)c1ccc(C)cc1
T/C [1]: 97 % of control
T/C [2]: 104 % of control
T/C [3]: 97 % of control

[Cl][Co]([Cl])[Cl].[NH-]CC[N-]CC[NH-]
T/C [1]: 109 % of control
T/C [2]: 109 % of control

O=C(C[n+]1ccccc1)N/N=C/c1ccc(O)c(O)c1
T/C [2]: 100 % of control
T/C [4]: 95 % of control
T/C [3]: 104 % of control
T/C [5]: 86 % of control

CC(=O)NCCN=Cc1ccccc1
T/C [2]: 112 % of control
T/C [3]: 120 % of control

c1ccc(C2C(c3ccnc4c3ccc3ccccc34)C(c3ccccc3)C2c2ccnc3c2ccc2ccccc23)cc1 (stereo unspecified)
T/C (dose: 25.0 mg/kg/injection, schedule: Q01DX001 (ip), vehicle: Klucel (hydroxypropylcellulose) (HPC)): 93 % of control and 91 % of control
T/C (dose: 50.0 mg/kg/injection, schedule: Q01DX001 (ip), vehicle: Klucel (hydroxypropylcellulose) (HPC)): 97 % of control and 100 % of control
T/C [9]: 100 % of control and 106 % of control

CCCCNP(=O)(N1CC1C)N1CC1C (stereo unspecified)
T/C (dose: 33.0 mg/kg/injection, schedule: Q04DX003 (ip), vehicle: saline): 122 % of control
T/C (dose: 50.0 mg/kg/injection, schedule: Q04DX003 (ip), vehicle: saline): 175 % of control and 181 % of control
T/C (dose: 100.0 mg/kg/injection, schedule: Q04DX003 (ip), vehicle: saline): 90 % of control

Clc1ccc(C(Cl)(Cl)Cl)cc1Cl
T/C (dose: 12.5 mg/kg/injection, schedule: Q01DX009 (ip), vehicle: Klucel (hydroxypropylcellulose) (HPC)): 95 % of control
T/C (dose: 25.0 mg/kg/injection, schedule: Q01DX009 (ip), vehicle: Klucel (hydroxypropylcellulose) (HPC)): 100 % of control
T/C (dose: 50.0 mg/kg/injection, schedule: Q01DX009 (ip), vehicle: Klucel (hydroxypropylcellulose) (HPC)): 100 % of control

CC(Nc1ccc(Br)cc1[N+](=O)[O-])C(=O)O (stereo unspecified)
T/C (dose: 25.0 mg/kg/injection, schedule: Q01DX009 (ip), vehicle: saline with Tween-80): 122 % of control
T/C [1]: 94 % of control
T/C [2]: 112 % of control
T/C [3]: 114 % of control

CC1(C#N)CC(C#N)Nc2ccccc2N1 (stereo unspecified)
T/C (dose: 100.0 mg/kg/injection, schedule: Q01DX001 (ip), vehicle: saline): 104 % of control
T/C (dose: 200.0 mg/kg/injection, schedule: Q01DX001 (ip), vehicle: saline): 91 % of control
T/C (dose: 400.0 mg/kg/injection, schedule: Q01DX001 (ip), vehicle: saline): 100 % of control

CC1=C2CC(C)(C)/C=C\C(=O)/C(C)=C\C3=CC(C)(O)CC3(O2)C1=O (stereo unspecified)
T/C (dose: 0.16 mg/kg/injection, schedule: Q01DX009 (ip), vehicle: saline + alcohol): 93 % of control
T/C (dose: 0.31 mg/kg/injection, schedule: Q01DX009 (ip), vehicle: saline + alcohol): 118 % of control
T/C (dose: 0.62 mg/kg/injection, schedule: Q01DX009 (ip), vehicle: saline + alcohol): 120 % of control
T/C (dose: 1.25 mg/kg/injection, schedule: Q01DX009 (ip), vehicle: saline + alcohol): 118 % of control
T/C (dose: 10.0 mg/kg/injection, schedule: Q01DX009 (ip), vehicle: saline + alcohol): 154 % of control

CCCCC(CC)CC1CCCCC1O (stereo unspecified)
T/C (dose: 100.0 mg/kg/injection, schedule: Q01DX009 (ip), vehicle: Klucel (hydroxypropylcellulose) (HPC)): 87 % of control
T/C [6]: 122 % of control
T/C (dose: 200.0 mg/kg/injection, schedule: Q01DX009 (ip), vehicle: Klucel (hydroxypropylcellulose) (HPC)): 91 % of control
T/C [7]: 109 % of control
T/C [8]: 95 % of control

COc1cc2cc3cc4cc(OC)c(OC)cc4c(C)[n+]3cc2cc1OC (tested in a mixture with another compound)
T/C (dose: 10.0 mg/kg/injection, schedule: Q01DX009 (ip), vehicle: Klucel (hydroxypropylcellulose) (HPC)): 163 % of control
T/C (dose: 20.0 mg/kg/injection, schedule: Q01DX009 (ip), vehicle: Klucel (hydroxypropylcellulose) (HPC)): 155 % of control
T/C (dose: 20.0 mg/kg/injection, schedule: Q01DX009 (ip), vehicle: saline): 180 % of control
T/C (dose: 40.0 mg/kg/injection, schedule: Q01DX009 (ip), vehicle: Klucel (hydroxypropylcellulose) (HPC)): 163 % of control
T/C (dose: 40.0 mg/kg/injection, schedule: Q01DX009 (ip), vehicle: saline): 150 % of control
T/C (dose: 40.0 mg/kg/injection, schedule: Q04DX003 (ip), vehicle: saline): 154 % of control and 166 % of control
T/C (dose: 80.0 mg/kg/injection, schedule: Q01DX009 (ip), vehicle: Klucel (hydroxypropylcellulose) (HPC)): 163 % of control
T/C (dose: 80.0 mg/kg/injection, schedule: Q01DX009 (ip), vehicle: saline): 180 % of control
T/C (dose: 80.0 mg/kg/injection, schedule: Q04DX003 (ip), vehicle: saline): 157 % of control
T/C (dose: 120.0 mg/kg/injection, schedule: Q01DX009 (ip), vehicle: saline): 150 % of control
T/C (dose: 160.0 mg/kg/injection, schedule: Q01DX009 (ip), vehicle: Klucel (hydroxypropylcellulose) (HPC)): 154 % of control
T/C (dose: 160.0 mg/kg/injection, schedule: Q01DX009 (ip), vehicle: saline): 200 % of control
T/C (dose: 160.0 mg/kg/injection, schedule: Q04DX003 (ip), vehicle: saline): 154 % of control
T/C (dose: 168.0 mg/kg/injection, schedule: Q04DX003 (ip), vehicle: saline): 99 % of control
T/C (dose: 250.0 mg/kg/injection, schedule: Q04DX003 (ip), vehicle: saline): 92 % of control

CCCCn1c(Cl)c(/C=N\Nc2ccccc2[N+](=O)[O-])c2ccccc21
T/C [10]: 89 % of control

O=C(NO)c1ccc(O)cc1
T/C [11]: 118 % of control
T/C (dose: 132.0 mg/kg/injection, schedule: Q04DX003 (ip), vehicle: saline sonified): 100 % of control
T/C [12]: 100 % of control

CCCCCCCC(=O)NCCCC
T/C [9]: 104 % of control
T/C [6]: 91 % of control
T/C [10]: 86 % of control
T/C (dose: 400.0 mg/kg/injection, schedule: Q01DX001 (ip), vehicle: Klucel (hydroxypropylcellulose) (HPC)): 104 % of control
T/C [8]: 100 % of control

COC(=O)c1c(OC)ccc2c1CC1C3Nc4ccccc4C3CCN1C2 (stereo unspecified)
T/C (dose: 50.0 mg/kg/injection, schedule: Q04DX003 (ip), vehicle: saline sonified): 100 % of control
T/C [11]: 100 % of control
T/C [12]: 100 % of control
